Experiment [1] relates to L1210 cells. In words: SNACS / node deviation end-point assay of chemically perturbed L1210 cells in the suspended microchannel resonator (SMR). It is filed as cell-based, mouse. As to conditions: for SNACS (size-normalized acoustic scattering, proxy of cell stiffness) after treatment: L1210 cells pretreated 20-30 min, LatB 0.02-1 μM, CytoD 1 μM, Bleb 50 μM, Noc 1 μg/ml, vs DMSO 0.1% control, LatB and CytoD p<0.0001. On the procedure:
SMR devices were fabricated at CEA-LETI, Grenoble, France. The fluid channel in the detection regime is covered with thin silicon layers. The SMRs were vibrated with a piezo-ceramic plate bonded underneath the chip, providing actuation to resonate the cantilever beam in the second mode. To track the changes in the resonant frequency of the cantilever as a function of time, the cantilever was kept in a feedback loop oscillating at its resonant frequency. The motion of the cantilever was measured using piezoresistors that are implanted at the base of the silicon cantilever. A digital control platform was utilized to oscillate the SMR in direct feedback mode, where the motion signal acquired from the piezoresistor is delayed, amplified, and utilized as the drive signal used to actuate the cantilever. The measurement bandwidth of this control system was set at ˜1,500 Hz, which is wide enough to capture frequency modulation signals created by cell transit events and narrow enough to minimize noise.
(§1) The system was operated by placing a chip on top of a hollow copper plate that is connected to a water bath by tubing to maintain constant temperature on the chip. For all single-cell, long-term monitoring experiments, the temperature of the copper plate was kept at 37° C. The sample was loaded to the SMR from vials pressurized with air containing 5% CO2 to maintain the pH of the culture. A 0.007″ inner diameter fluorinated ethylene propylene (FEP) tubing (IDEX Health & Science) was utilized to push the sample into the chip. The fluid flow was controlled using two electronic pressure regulators (Proportion Air QPV1) and three solenoid valves (SMC-S070), which were controlled by National Instruments control cards and a custom measurement software (Labview 2012). Typically, differential pressure of ˜0.5 psi was applied across the SMR, yielding a flow rate of ˜2 nL/s (calculated based on the frequency modulation signal due a cell transit; typically 200-300 ms) to maintain constant shear and data rate. Under these conditions, the L1210 cell growth rate was similar to that in culture. Beads, hydrogels and drug-response end-point assays were measured at room temperature. All end-point assays were conducted within 30 minutes after samples were loaded. New samples were flushed every several minutes into the input bypass to minimize potential size bias due to particle/cell settling in the tubing and sample vials.
To measure buoyant mass (antinode) and node deviation (node) from the acquired resonant frequency waveforms, the frequency data was filtered with a third order Savitzky-Golay low-pass filter and the local minima (antinode) that is below a user-defined threshold. Next, local maxima (node) around the peaks were determined. To correct for the possible slope during the particle/cell transition through the cantilever, a baseline was calculated and subtracted from the measured peaks by fitting a first order polynomial at frequency data points prior and posterior of the cell signal. For single-cell volume measurements (FIG. 16A), baselines were fitted with a second order polynomial to account for the baseline fluctuation due to fluid exchange. Both local maxima and minima in the cell signal were subtracted from the linear baseline to obtain the buoyant mass (local minima, antinode) and node deviation (local maxima, node). For single-cell end-point assays (population measurements), frequency peaks were rejected when local minima (two antinodes) differed from each other more than 10% of the average value and/or local maxima (two nodes) differed from each other more than 15% of the average value of local minima, which occur when multiple cells or cell with debris enter the SMR simultaneously. Peaks were rejected if their shape was atypical (e.g., particle/cell stuck in the cantilever). […]

Experiment [2] has as its system L1210 cells. In words: Continuous single-cell monitoring of SNACS (stiffness) of L1210 cells through mitosis in the SMR. It is filed as cell-based, mouse. How it is done:
Next, it was determined if both stiffness and buoyant mass of the same cell could be repeatedly measured in order to monitor cell stiffness during the cell cycle. To do so, a previously reported fluidic control strategy was implemented that enables continuous, non-invasive SMR measurements of the same cell. Employing on-chip microscopy capable of acquiring Differential Interference Contrast (DIC) images, stiffness, buoyant mass and morphology of the same cell over multiple generations was simultaneously measured. […] SNACS is shown in dashed lines when measurement error becomes statistically significant. The morphology of the cell was imaged to pinpoint the onset of anaphase as well as to correct for mass elongation effects on the SNACS measurement during anaphase and telophase (FIG. 24A-24C). Dynamic but consistent changes in cell stiffness during mitosis were observed. […] The error in the SNACS measurement increased after cells became full doublets (˜15 min after the onset of anaphase), making subsequent stiffness changes until division not statistically significant (p>0.05). Although the duration and magnitude of the dynamics varied, we observed a similar trend in cell stiffness in other mammalian cell types: BaF3 (FIG. 15D) and S-Hela (FIG. 15E).
as §1
To measure buoyant mass (antinode) and node deviation (node) from the acquired resonant frequency waveforms, the frequency data was filtered with a third order Savitzky-Golay low-pass filter and the local minima (antinode) that is below a user-defined threshold. Next, local maxima (node) around the peaks were determined. To correct for the possible slope during the particle/cell transition through the cantilever, a baseline was calculated and subtracted from the measured peaks by fitting a first order polynomial at frequency data points prior and posterior of the cell signal. For single-cell volume measurements (FIG. 16A), baselines were fitted with a second order polynomial to account for the baseline fluctuation due to fluid exchange. […]

In experiment [3] the test system is L1210 cells. As to the kind of experiment: Imaging of F-actin (LifeAct-RFP) in live L1210 cells before and after chemical treatment. It is filed as cell-based, mouse. As to conditions: live L1210 cells expressing LifeAct-RFP, before and after 30 min treatment; 1 μM LatB, 1 μM CytoD, Noc 1 μg/ml. On the procedure: L1210 FUCCI cells, which express the fluorescence cell cycle marker construct mAG-hGem, were transfected with LifeAct, a F-actin labelling red fluorescent protein construct, using rLVUbi-LifeAct-TagRFP lentiviral vector obtained from ibidi GmbH. Several rounds of transfections were carried out using spinoculation. In short, 1.5×10^5 L1210 FUCCI cells were mixed with 10 μg/ml Polybrene (EMD Millipore) and 1×106 TU of lentivirus, and the mixture was centrifuged at 800 g for 60 minutes at 25° C. After centrifugation, the cells were moved to normal cell culture media, grown overnight, and the spinoculation procedure was repeated. Cells were moved to normal culture media after three rounds of transfections, and 24 hours later, selection was started by adding 10 μg/ml Puromycin (Sigma-Aldrich). After a week of selection, the transfected population was enriched for cells expressing high levels of LifeAct by FACS sorting using BD FACS Aria.
L1210 cells expressing the FUCCI (mAG-hGem) and LifeAct-RFP F-actin probe (rLVUbi-LifeAct-TagRFP) constructs were imaged on poly-lysine coated glass bottom CellView cell culture dishes (Greiner Bio-One). Media, CO2, and temperature conditions during the imaging were the same as within the SMR. Imaging was carried out using a DeltaVision widefield deconvolution microscope with standard FITC and TRICT filters, 100× oil immersion objective and immersion oil with refractive index of 1.522. […]
All images were deconvolved using standard settings in the softWoRX software. To normalize the effect of photo-bleaching, the total LifeAct signal in the entire images (2048×2048 pixels) that contained multiple cells was calculated. […] During the subsequent image analyses, the LifeAct intensity was corrected with the corresponding decay coefficient calculated from the polynomial fit for each frame. To analyze individual cells, the representative cells that went through the nuclear envelope breakdown and/or cytokinesis during the experiment were determined. These cells were cut out of the larger images and analyzed individually (FIG. 28A).

The next experiment concerns Baf3 cells. As to the kind of experiment: Node deviation versus time of Baf3 cells treated with drug (single-cell therapeutic sensitivity). It is filed as cell-based. The settings on record: a few hours of treatment. How it is done: Acoustic scattering may be used as an early detection marker of single-cell therapeutic sensitivity (FIGS. 11A-11B). […] Viability and proliferation assays are generally not sensitive until 24 hours of drug exposure (data not shown).

As to `Cc1ccc2c(c1)C(=O)C1(O)CCN(c3ccccc3)C1=N2` (stereo not drawn) [Blebbistatin], in the experiment on L1210 cells [1], the “SNACS (size-normalized acoustic scattering, proxy of cell stiffness) after treatment” value is on record as “decreased the SNACS”. The “stiffness in early mitosis” value with L1210 cells [2] (25 μM Blebbistatin) is reported as “still displayed a gradual stiffness decrease in early mitosis”. For the same compound, in the experiment with L1210 cells [2] (25 μM Blebbistatin, compared with untreated cells), the “stiffness dynamics in anaphase and telophase” value is reported as “disappeared”. Take `C=C1[C@@H](C)[C@H]2[C@H](Cc3ccccc3)NC(=O)[C@]23[C@H](OC(C)=O)/C=C/[C@@](C)(O)C(=O)[C@@H](C)C/C=C/[C@H]3[C@@H]1O` [Cytochalsin D]: in the experiment with L1210 cells [1], the “SNACS (size-normalized acoustic scattering, proxy of cell stiffness) after treatment” value is “decreased the SNACS”. The “actin cortex morphology (LifeAct F-actin images)” value in the experiment on L1210 cells [3] is reported as “polarized cortex”. On to `CCN(c1nc(N)c(C(=O)NC(=N)N)nc1Cl)C(C)C` [EIPA, ethylisopropylamiloride], for which the “stiffness increase in early anaphase” value in the experiment with L1210 cells [2] (10 μM EIPA) is “not present”. For the same compound, the “ΔSNACS, SNACS change in prophase and metaphase (early mitosis)” value in the experiment with L1210 cells [2] (10 μM EIPA (n=5), 5 μM STLC (n=8), mean±standard deviation, control −0.22±0.01) is −0.08±0.02.

For `Cc1ccc(NC(=O)c2ccc(CN3CCN(C)CC3)cc2)cc1Nc1nccc(-c2cccnc2)n1` [Imatinib], in the experiment with Baf3 cells, the “node deviation (ND) of treated cells versus DMSO” value is recorded as “distinct ND”. `C/C1=C/C(=O)O[C@@H]2C[C@@H](CC[C@H](C)/C=C\CC1)O[C@@](O)([C@@H]1CSC(=O)N1)C2` [Latrunculin B]: the “SNACS (size-normalized acoustic scattering, proxy of cell stiffness) after treatment” value with L1210 cells [1] was “decreased the SNACS”. Further, the “actin cortex morphology (LifeAct F-actin images)” value in the experiment with L1210 cells [3] was “punctured cortex”. For `COC(=O)Nc1nc2ccc(C(=O)c3cccs3)cc2[nH]1` [Nocodazole] the same measures were “reduced SNACS” and “affected the actin cortex morphology”. With `N[C@@H](CSC(c1ccccc1)(c1ccccc1)c1ccccc1)C(=O)O` [STLC, S-trityl-1-cysteine], the “stiffness (SNACS) during metaphase arrest” value with L1210 cells [2] (5 μM STLC) is given as “stiffness remained low for several hours”. On to paraformaldehyde, for which, in the experiment on L1210 cells [1], the “SNACS after crosslinking of cellular structures” value is “opposite change in SNACS” and the “node deviation after treatment” value is recorded as “increased the node deviation”.
